# Results as given in patent US7495104B2, “Quinoline or quinazoline derivatives inhibiting auto-phosphorylation of fibroblast growth factor receptors” (Kirin Beer Kabushiki Kaisha, priority 2001, dated 2009).
# Target: Bek (Homo sapiens, UniProt P21802)
# Assay: Inhibitory activity against Bek-autophosphorylation using ELISA method in OCUM-2MD3 cells
# Assay type: cell-based
# Conditions: 1 hr with compound, read-out: IC50 (concentration necessary for inhibiting 50% of Bek-phosphorylation)
# Summary of the method: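 Sandwich ELISA (anti-phosphotyrosine capture, anti-Bek detection, peroxidase, 450 nm) measured Bek autophosphorylation in OCUM-2MD3 lysates after 1 hr compound treatment at 37° C in 0.1% serum medium. IC50 derived by scaling between no-drug (100%) and excess positive control at 1000 nM (0%).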
# Bek, sequence (P21802 431-767 limits assumed): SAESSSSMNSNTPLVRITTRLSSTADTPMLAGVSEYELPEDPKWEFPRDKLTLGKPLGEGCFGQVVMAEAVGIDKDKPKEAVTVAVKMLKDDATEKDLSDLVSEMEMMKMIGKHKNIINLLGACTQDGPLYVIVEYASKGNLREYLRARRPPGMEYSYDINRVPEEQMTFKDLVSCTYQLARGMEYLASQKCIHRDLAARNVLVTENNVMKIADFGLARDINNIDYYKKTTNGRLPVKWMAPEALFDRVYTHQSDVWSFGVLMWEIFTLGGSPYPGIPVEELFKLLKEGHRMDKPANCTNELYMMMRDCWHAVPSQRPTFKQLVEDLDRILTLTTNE
row,Structure (SMILES),IC50
1,"COc1cc2c(Oc3ccc(NC(=O)NCCC(C)(C)C)c(Cl)c3)ccnc2cc1OCCCN1CCN(C)CC1 [Compound 187, 1-(2-Chloro-4-{6-methoxy-7-[3-(4-methyl-piperazin-1-yl)-propoxy]-quinolin-4-yloxy}-phenyl)-3-(3,3-dimethyl-butyl)-urea]",22.3 nM
2,"COc1cc2c(Oc3ccc(NC(=O)NCCC(C)(C)C)c(Cl)c3)ccnc2cc1OCCCN1CCCN(C)CC1 [Compound 188, 1-(2-Chloro-4-{6-methoxy-7-[3-(4-methyl-[1,4]diazepan-1-yl)-propoxy]-quinolin-4-yloxy}-phenyl)-3-(3,3-dimethyl-butyl)-urea]",29.9 nM
3,"COc1cc2c(Oc3ccc(NC(=O)NCCC(C)(C)C)c(Cl)c3)ccnc2cc1OCC1CCCNC1 (centres unmarked) [Compound 190, 1-{2-Chloro-4-[6-methoxy-7-(piperidin-3-ylmethoxy)-quinolin-4-yloxy]-phenyl}-3-(3,3-dimethyl-butyl)-urea]",33.5 nM
4,"COc1cc2c(Oc3ccc(NC(=O)NCCC(C)(C)C)cc3)ccnc2cc1OCCCN1C[C@@H](C)O[C@@H](C)C1 [Compound 200, 1-(3,3-Dimethyl-butyl)-3-(4-{7-[3-(2,6-dimethyl-morpholin-4-yl)-propoxy]-6-methoxy-quinolin-4-yloxy}-phenyl)-urea]",21.1 nM
5,"COc1cc2c(Oc3ccc(NC(=O)NCCC(C)(C)C)c(Cl)c3)ccnc2cc1OCCC1CCNCC1 [Compound 202, 1-{2-Chloro-4-[6-methoxy-7-(2-piperidin-4-yl-ethoxy)-quinolin-4-yloxy]-phenyl}-3-(3,3-dimethyl-butyl)-urea]",28.5 nM
6,"COc1cc2c(Oc3ccc(NC(=O)NCCC(C)(C)C)c(F)c3)ccnc2cc1OCCCCl [Compound 204, 1-{4-[7-(3-Chloro-propoxy)-6-methoxy-quinolin-4-yloxy]-2-fluoro-phenyl}-3-(3,3-dimethyl-butyl)-urea]",234 nM
7,"COc1cc2c(Oc3ccc(NC(=O)NCCC(C)(C)C)c(Cl)c3)ccnc2cc1OCCCN1CCC(C)CC1 [Compound 207, 1-(2-Chloro-4-{6-methoxy-7-[3-(4-methyl-piperidin-1-yl)-propoxy]-quinolin-4-yloxy}-phenyl)-3-(3,3-dimethyl-butyl)-urea]",60 nM
8,"COc1cc2c(Oc3ccc(NC(=O)NCCC(C)(C)C)c(Cl)c3)ccnc2cc1OCCCN1CCC[C@H]1CO [Compound 208, 1-(2-Chloro-4-{7-[3-(2-hydroxymethyl-pyrrolidin-1-yl)-propoxy]-6-methoxy-quinolin-4-yloxy}-phenyl)-3-(3,3-dimethyl-butyl)-urea]",27 nM
9,"COc1cc2c(Oc3ccc(NC(=O)NCCC(C)(C)C)c(F)c3)ccnc2cc1OCCCN1CCOCC1 [Compound 210, 1-(3,3-Dimethyl-butyl)-3-{2-fluoro-4-[6-methoxy-7-(3-morpholin-4-yl-propoxy)-quinolin-4-yloxy]-phenyl}-urea]",< 10 nM
10,"COc1cc2nccc(Oc3ccc(Nc4ccc(C(C)(C)C)cc4)cc3)c2cc1OCCN1CCOCC1 [Compound 212, (4-Tert-butyl-phenyl)-{4-[7-methoxy-6-(2-morpholin-4-yl-ethoxy)-quinolin-4-yloxy]-phenyl}-amine]",137 nM
11,"COc1cc2nccc(Oc3ccc(Nc4ccc(C(C)(C)C)cc4)cc3)c2cc1OCC(O)CN1CCOCC1 (centres unmarked) [Compound 213, 1-{4-[4-(4-Tert-butyl-phenylamino)-phenoxy]-7-methoxy-quinolin-6-yloxy}-3-morpholin-4-yl-propan-2-ol]",126 nM
12,"COc1cc2nccc(Oc3ccc(Nc4ccc(C(C)(C)C)cc4)cc3)c2cc1O [Compound 214, 4-[4-(4-Tert-butyl-phenylamino)-phenoxy]-7-methoxy-quinolin-6-ol]",26.1 nM
13,"COC(=O)COc1cc2nccc(Oc3ccc(NC(=O)NCCC(C)(C)C)cc3)c2cc1OC [Compound 215, Methyl (4-{4-[3-(3,3-dimethyl-butyl)-ureido]-phenoxy}-6-methoxy-quinolin-7-yloxy)-acetate]",341 nM
14,"COc1cc2c(Oc3ccc(Nc4ccc(C(C)(C)C)cc4)cc3)ccnc2cc1OCCCN1CCC(O)CC1 [Compound 216, 1-(3-{4-[4-(4-Tert-butyl-phenylamino)-phenoxy]-6-methoxy-quinolin-7-yloxy}-propyl)-piperidin-4-ol]",174 nM
15,"COc1cc2c(Oc3ccc(Nc4ccc(C(C)(C)C)cc4)cc3)ccnc2cc1OCCCN1CCC(CO)CC1 [Compound 217, [1-(3-{4-[4-(4-Tert-butyl-phenylamino)-phenoxy]-6-methoxy-quinolin-7-yloxy}-propyl)-piperidin-4-yl]-methanol]",40.9 nM
16,"COc1cc2c(Oc3ccc(Nc4ccc(C(C)(C)C)cc4)cc3)ccnc2cc1OCCCN1CCC(CCO)CC1 [Compound 218, 2-[1-(3-{4-[4-(4-Tert-butyl-phenylamino)-phenoxy]-6-methoxy-quinolin-7-yloxy}-propyl)-piperidin-4-yl]-ethanol]",96 nM
17,"COc1cc2c(Oc3ccc(NC(=O)NCCC(C)(C)C)cc3)ccnc2cc1OCCN1CCC(CCO)CC1 [Compound 219, 1-(3,3-Dimethyl-butyl)-3-[4-(7-{2-[4-(2-hydroxy-ethyl)-piperidin-1-yl]-ethoxy}-6-methoxy-quinolin-4-yloxy)-phenyl]-urea]",< 10 nM

# The remaining lines, values ahead:
row,IC50,Structure (SMILES)
1,18.3 nM,"COc1cc2c(Oc3ccc(NC(=O)NCCC(C)(C)C)c(Cl)c3)ccnc2cc1OCCN1CCCN(C)CC1 [Compound 186, 1-(2-Chloro-4-{6-methoxy-7-[2-(4-methyl-[1,4]diazepan-1-yl)-ethoxy]-quinolin-4-yloxy}-phenyl)-3-(3,3-dimethyl-butyl)-urea]"
2,10.6 nM,"CCN(CC)CC(O)COc1cc2nccc(Oc3ccc(NC(=O)NCCC(C)(C)C)c(Cl)c3)c2cc1OC (centres unmarked) [Compound 191, 1-{2-Chloro-4-[7-(3-diethylamino-2-hydroxy-propoxy)-6-methoxy-quinolin-4-yloxy]-phenyl}-3-(3,3-dimethyl-butyl)-urea]"
3,9.1 nM,"COc1cc2c(Oc3ccc(NC(=O)NCCC(C)(C)C)c(Cl)c3)ccnc2cc1OCC(O)CN1CCCC1 (centres unmarked) [Compound 192, 1-{2-Chloro-4-[7-(2-hydroxy-3-pyrrolidin-1-yl-propoxy)-6-methoxy-quinolin-4-yloxy]-phenyl}-3-(3,3-dimethyl-butyl)-urea]"
4,17.4 nM,"COc1cc2c(Oc3ccc(NC(=O)NCCC(C)(C)C)c(Cl)c3)ccnc2cc1OCC(O)CN1CCCCC1 (centres unmarked) [Compound 193, 1-{2-Chloro-4-[7-(2-hydroxy-3-piperidin-1-yl-propoxy)-6-methoxy-quinolin-4-yloxy]-phenyl}-3-(3,3-dimethyl-butyl)-urea]"
5,19.7 nM,"COc1cc2c(Oc3ccc(NC(=O)NCCC(C)(C)C)c(Cl)c3)ccnc2cc1OCC(O)CN1CCCCCC1 (centres unmarked) [Compound 194, 1-{4-[7-(3-Azepan-1-yl-2-hydroxy-propoxy)-6-methoxy-quinolin-4-yloxy]-2-chloro-phenyl}-3-(3,3-dimethyl-butyl)-urea]"
6,< 10 nM,"COc1cc2c(Oc3ccc(NC(=O)NCCC(C)(C)C)c(Cl)c3)ccnc2cc1OCC(O)CN1CCOCC1 (centres unmarked) [Compound 195, 1-{2-Chloro-4-[7-(2-hydroxy-3-morpholin-4-yl-propoxy)-6-methoxy-quinolin-4-yloxy]-phenyl}-3-(3,3-dimethyl-butyl)-urea]"
7,17.3 nM,"COc1cc2c(Oc3ccc(NC(=O)NCCC(C)(C)C)c(Cl)c3)ccnc2cc1OCC(O)CN1CCCN(C)CC1 (centres unmarked) [Compound 196, 1-(2-Chloro-4-{7-[2-hydroxy-3-(4-methyl-[1,4]diazepan-1-yl)-propoxy]-6-methoxy-quinolin-4-yloxy}-phenyl)-3-(3,3-dimethyl-butyl)-urea]"
8,< 10 nM,"COc1cc2c(Oc3ccc(NC(=O)NCCC(C)(C)C)c(Cl)c3)ccnc2cc1OC[C@@H](O)CN1CCOCC1 [Compound 197, 1-{2-Chloro-4-[7-(2-hydroxy-3-morpholin-4-yl-propoxy)-6-methoxy-quinolin-4-yloxy]-phenyl}-3-(3,3-dimethyl-butyl)-urea]"
9,12.3 nM,"CCNCC(O)COc1cc2nccc(Oc3ccc(NC(=O)NCCC(C)(C)C)c(Cl)c3)c2cc1OC (centres unmarked) [Compound 198, 1-{2-Chloro-4-[7-(3-ethylamino-2-hydroxy-propoxy)-6-methoxy-quinolin-4-yloxy]-phenyl}-3-(3,3-dimethyl-butyl)-urea]"
10,< 10 nM,"COc1cc2c(Oc3ccc(NC(=O)NCCC(C)(C)C)c(Cl)c3)ccnc2cc1OCC(O)CN(C)C (centres unmarked) [Compound 199, 1-{2-Chloro-4-[7-(3-dimethylamino-2-hydroxy-propoxy)-6-methoxy-quinolin-4-yloxy]-phenyl}-3-(3,3-dimethyl-butyl)-urea]"
11,< 10 nM,"COc1cc2c(Oc3ccc(NC(=O)NCCC(C)(C)C)c(Cl)c3)ccnc2cc1OC[C@H](O)CN1CCOCC1 [Compound 201, 1-{2-Chloro-4-[7-(2-hydroxy-3-morpholin-4-yl-propoxy)-6-methoxy-quinolin-4-yloxy]-phenyl}-3-(3,3-dimethyl-butyl)-urea]"
12,25.5 nM,"COc1cc2c(Oc3ccc(NC(=O)NCCC(C)(C)C)c(Cl)c3)ccnc2cc1OCCCN1CCOCC1 [Compound 205, 1-{2-Chloro-4-[6-methoxy-7-(3-morpholin-4-yl-propoxy)-quinolin-4-yloxy]-phenyl}-3-(3,3-dimethyl-butyl)-urea]"
13,18.5 nM,"COc1cc2c(Oc3ccc(NC(=O)NCCC(C)(C)C)c(Cl)c3)ccnc2cc1OCC(O)CN1CCOCC1 (centres unmarked) [Compound 206, 1-{2-Chloro-4-[7-(2-hydroxy-3-morpholin-4-yl-propoxy)-6-methoxy-quinolin-4-yloxy]-phenyl}-3-(3,3-dimethyl-butyl)-urea]"
14,< 10 nM,"COc1cc2c(Oc3ccc(NC(=O)NCCC(C)(C)C)c(F)c3)ccnc2cc1OCC(O)CN1CCOCC1 (centres unmarked) [Compound 209, 1-(3,3-Dimethyl-butyl)-3-{2-fluoro-4-[7-(2-hydroxy-3-morpholin-4-yl-propoxy)-6-methoxy-quinolin-4-yloxy]-phenyl}-urea]"
15,< 10 nM,"COc1cc2c(Oc3ccc(NC(=O)NCCC(C)(C)C)c(Cl)c3)ccnc2cc1OCCO [Compound 211, 1-{2-Chloro-4-[7-(2-hydroxy-ethoxy)-6-methoxy-quinolin-4-yloxy]-phenyl}-3-(3,3-dimethyl-butyl)-urea]"
